Measured values from patent publication US10758534B2 (Vertex Pharmaceuticals Incorporated, priority 2014, dated 2020).
Read-outs that look alike come from different tables or passages of the source.

Target: T1, F508del (Homo sapiens, UniProt P13569, DEL508-508)
T1 construct: expressed in transfected cells
Assay: Protocol 2: FRET membrane potential optical assay (VIPR), identification of correction compounds
Assay type: cell-based
Summary of the method: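 Correction of the F508del trafficking defect is scored as forskolin (10 μM)/genistein (20 μM)-stimulated Cl^− efflux in NIH3T3 mouse fibroblasts after a 16 hr, 37° C. compound exposure. Depolarization was followed optically using voltage-sensing FRET dyes.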

[1] = F508del CFTR modulator activity, compounds of Table 1, read-out: EC30
[2] = Table 3, compounds of Table 1 as modulators of CFTR activity, protocol not stated

T1 sequence (P13569 with tags, fused parts or gaps DEL508-508): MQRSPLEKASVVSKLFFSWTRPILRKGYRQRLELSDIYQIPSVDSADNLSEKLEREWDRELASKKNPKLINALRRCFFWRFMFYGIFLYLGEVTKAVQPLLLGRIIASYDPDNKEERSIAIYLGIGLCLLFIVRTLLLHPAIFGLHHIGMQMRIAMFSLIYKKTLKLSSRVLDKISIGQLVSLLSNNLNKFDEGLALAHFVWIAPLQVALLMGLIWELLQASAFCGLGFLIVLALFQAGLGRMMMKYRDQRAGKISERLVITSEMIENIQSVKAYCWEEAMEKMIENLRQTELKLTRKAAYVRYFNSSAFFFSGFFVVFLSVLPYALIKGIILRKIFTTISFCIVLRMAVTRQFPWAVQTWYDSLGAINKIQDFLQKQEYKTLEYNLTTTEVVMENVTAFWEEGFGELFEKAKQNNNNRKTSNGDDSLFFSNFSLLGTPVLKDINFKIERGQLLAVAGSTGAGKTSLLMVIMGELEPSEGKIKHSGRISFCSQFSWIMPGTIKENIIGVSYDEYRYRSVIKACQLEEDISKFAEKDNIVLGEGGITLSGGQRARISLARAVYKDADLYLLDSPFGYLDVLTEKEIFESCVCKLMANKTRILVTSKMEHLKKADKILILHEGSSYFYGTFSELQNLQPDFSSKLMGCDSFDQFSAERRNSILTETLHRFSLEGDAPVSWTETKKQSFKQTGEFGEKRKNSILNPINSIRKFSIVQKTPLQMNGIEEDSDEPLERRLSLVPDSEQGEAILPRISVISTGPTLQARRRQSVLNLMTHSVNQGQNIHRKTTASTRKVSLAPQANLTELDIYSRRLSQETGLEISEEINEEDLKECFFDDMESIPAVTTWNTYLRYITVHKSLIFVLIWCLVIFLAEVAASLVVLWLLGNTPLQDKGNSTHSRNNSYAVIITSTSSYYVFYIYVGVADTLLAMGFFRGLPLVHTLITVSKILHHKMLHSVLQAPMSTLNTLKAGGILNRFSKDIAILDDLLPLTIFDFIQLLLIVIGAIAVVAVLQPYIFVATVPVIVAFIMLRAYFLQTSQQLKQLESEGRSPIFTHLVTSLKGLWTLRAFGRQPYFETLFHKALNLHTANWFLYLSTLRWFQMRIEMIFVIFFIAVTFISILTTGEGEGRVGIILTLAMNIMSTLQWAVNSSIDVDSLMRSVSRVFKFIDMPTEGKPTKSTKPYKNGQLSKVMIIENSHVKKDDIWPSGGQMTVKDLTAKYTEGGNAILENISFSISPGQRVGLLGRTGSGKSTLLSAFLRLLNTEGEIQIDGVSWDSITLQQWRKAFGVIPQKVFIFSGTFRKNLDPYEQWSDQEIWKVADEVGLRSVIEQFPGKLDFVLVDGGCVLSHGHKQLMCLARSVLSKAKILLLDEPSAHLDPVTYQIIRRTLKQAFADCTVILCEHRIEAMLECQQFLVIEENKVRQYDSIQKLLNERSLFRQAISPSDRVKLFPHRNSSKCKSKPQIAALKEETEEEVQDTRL

Structure (SMILES)	EC30 [1] [nM]	EC30 [2]
CC1CN(c2ncccc2C(=O)NS(=O)(=O)c2cccc(OCC(C)(C)C)n2)C(C)(C)C1 (stereo not shown) [Compound 2412, N—[[6-(2,2-dimethylpropoxy)-2-pyridyl]sulfonyl]-2-(2,2,4-trimethylpyrrolidin-1-yl)pyridine-3-carboxamide]	< 3000	
Cc1ccc(-c2ccc(C(=O)NS(=O)(=O)c3ccc[nH]c3=O)c(N3C[C@@H](C)CC3(C)C)n2)c(O)c1 [Compound 2148, 6-(2-hydroxy-4-methyl-phenyl)-N-[(2-oxo-1H-pyridin-3-yl)sulfonyl]-2-[(4S)-2,2,4-trimethylpyrrolidin-1-yl]pyridine-3-carboxamide]	3000 to 10000	
COC(=O)c1ccc(Nc2cccc(S(=O)(=O)NC(=O)c3cccnc3N3CC(C)CC3(C)C)n2)nc1 (stereo not shown) [Compound 2140, methyl 6-[[6-[[2-(2,2,4-trimethylpyrrolidin-1-yl)pyridine-3-carbonyl]sulfamoyl]-2-pyridyl]amino]pyridine-3-carboxylate]	3000 to 10000	
CC1CCC(Oc2cccc(S(=O)(=O)NC(=O)c3cccnc3N3CC(C)CC3(C)C)n2)CC1 (stereo not shown) [Compound 2336, N—[[6-(4-methylcyclohexoxy)-2-pyridyl]sulfonyl]-2-(2,2,4-trimethylpyrrolidin-1-yl)pyridine-3-carboxamide]	< 3000	
CCOc1ccc(CCNc2cccc(S(=O)(=O)NC(=O)c3cccnc3N3CC(C)CC3(C)C)n2)cc1 (stereo not shown) [Compound 2642, N—[[6-[2-(4-ethoxyphenyl)ethylamino]-2-pyridyl]sulfonyl]-2-(2,2,4-trimethylpyrrolidin-1-yl)pyridine-3-carboxamide]	< 3000	
CC1CN(c2ncccc2C(=O)NS(=O)(=O)c2cccc(N3CCc4ccccc43)n2)C(C)(C)C1 (stereo not shown) [Compound 2255, N-[(6-indolin-1-yl-2-pyridyl)sulfonyl]-2-(2,2,4-trimethylpyrrolidin-1-yl)pyridine-3-carboxamide]	< 3000	
CC(C)CCOc1cccc(S(=O)(=O)NC(=O)c2cccnc2N2CC(C)CC2(C)C)n1 (stereo not shown) [Compound 2075, N-[(6-isopentyloxy-2-pyridyl)sulfonyl]-2-(2,2,4-trimethylpyrrolidin-1-yl)pyridine-3-carboxamide]	< 3000	
CC(C)COc1cc(F)cc(-c2ccc(C(=O)NS(=O)(=O)c3cccc(N)n3)c(N(C)C3CCC3)n2)c1 [Compound 683, N-[(6-amino-2-pyridyl)sulfonyl]-2-[cyclobutyl(methyl)amino]-6-(3-fluoro-5-isobutoxy-phenyl)pyridine-3-carboxamide]		+++ (“+++” means <3 uM)
CC(C)COc1cc(F)cc(-c2ccc(C(=O)NS(=O)(=O)c3cccc(N)n3)c(N3CCC[C@H](c4ccccc4)C3)n2)c1 [Compound 651, N-[(6-amino-2-pyridyl)sulfonyl]-6-(3-fluoro-5-isobutoxy-phenyl)-2-[(3R)-3-phenyl-1-piperidyl]pyridine-3-carboxamide]		+++ (“+++” means <3 uM)
CCOc1ccc(-c2ccc(C(=O)NS(=O)(=O)c3cccc(N)n3)c(N3CC(C)CC3(C)C)n2)c(C)c1 (stereo not shown) [Compound 536, N-[(6-amino-2-pyridyl)sulfonyl]-6-(4-ethoxy-2-methyl-phenyl)-2-(2,2,4-trimethylpyrrolidin-1-yl)pyridine-3-carboxamide]		+++ (“+++” means <3 uM)
Cc1cc(I)cc(C)c1Oc1nc(-c2cc(F)cc(OCC(C)C)c2)ccc1C(=O)NS(=O)(=O)c1cccc(N)n1 [Compound 2671, N-[(6-amino-2-pyridyl)sulfonyl]-6-(3-fluoro-5-isobutoxy-phenyl)-2-(4-iodo-2,6-dimethyl-phenoxy)pyridine-3-carboxamide]	< 3000	
Cc1cc(OCC(C)C)cc(-c2cnc(N3CC(C)CC3(C)C)c(C(=O)NS(=O)(=O)c3cccc(N)n3)c2)c1 (stereo not shown) [Compound 2558, N-[(6-amino-2-pyridyl)sulfonyl]-5-(3-isobutoxy-5-methyl-phenyl)-2-(2,2,4-trimethylpyrrolidin-1-yl)pyridine-3-carboxamide]	< 3000	
CC1CN(c2ncccc2C(=O)NS(=O)(=O)c2cccc(OCc3ccoc3)n2)C(C)(C)C1 (stereo not shown) [Compound 2507, N—[[6-(3-furylmethoxy)-2-pyridyl]sulfonyl]-2-(2,2,4-trimethylpyrrolidin-1-yl)pyridine-3-carboxamide]	< 3000	
CC1CN(c2nc(-c3ccc(NC(C)C)nc3)ccc2C(=O)NS(=O)(=O)c2cccc(N)n2)C(C)(C)C1 (stereo not shown) [Compound 437, N-[(6-amino-2-pyridyl)sulfonyl]-6-[16-(isopropylamino)-3-pyridyl]-2-(2,2,4-trimethylpyrrolidin-1-yl)pyridine-3-carboxamide]		+++ (“+++” means <3 uM)
CC(C)Oc1ccc(-c2ccc(C(=O)NS(=O)(=O)c3cccc(N)n3)c(N3CCCC(c4ccccc4)C3)n2)cn1 (stereo not shown) [Compound 233, N-[(6-amino-2-pyridyl)sulfonyl]-6-(6-isopropoxy-3-pyridyl)-2-[-3-phenyl-1-piperidyl]pyridine-3-carboxamide]		+++ (“+++” means <3 uM)
CC1CN(c2ncc(-c3ccc(C(C)(C)O)cc3)cc2C(=O)NS(=O)(=O)c2cccc(N)n2)C(C)(C)C1 (stereo not shown) [Compound 2547, N-[(6-amino-2-pyridyl)sulfonyl]-5-[4-(1-hydroxy-1-methyl-ethyl)phenyl]-2-(2,2,4-trimethylpyrrolidin-1-yl)pyridine-3-carboxamide]	< 3000	
CC1CN(c2ncccc2C(=O)NS(=O)(=O)c2cccc(Oc3cccc(N(C)C)c3)n2)C(C)(C)C1 (stereo not shown) [Compound 2443, N—[[6-[3-(dimethylamino)phenoxy]-2-pyridyl]sulfonyl]-2-(2,2,4-trimethylpyrrolidin-1-yl)pyridine-3-carboxamide]	< 3000	
COc1ncccc1S(=O)(=O)NC(=O)c1ccc(C2(C)CC2)nc1Oc1c(C)cc(C)cc1C [Compound 365, N-[(2-methoxy-3-pyridyl)sulfonyl]-6-(1-methylcyclopropyl)-2-(2,4,6-trimethylphenoxy)pyridine-3-carboxamide]		+++ (“+++” means <3 uM)
CC1CN(c2nc(-c3cncc(OCC(C)(C)C)n3)ccc2C(=O)NS(=O)(=O)c2cccc(N)n2)C(C)(C)C1 (stereo not shown) [Compound 779, N-[(6-amino-2-pyridyl)sulfonyl]-6-[6-(2,2-dimethylpropoxy)pyrazin-2-yl]-2-(2,2,4-trimethylpyrrolidin-1-yl)pyridine-3-carboxamide]		+++ (“+++” means <3 uM)

The next lines start with the values.

EC30 [1] [nM]	EC30 [2]	Structure (SMILES)
< 3000		C[C@@H]1CN(c2nc(-c3cccc4ccccc34)ccc2C(=O)NS(=O)(=O)c2ccc[nH]c2=O)C(C)(C)C1 [Compound 2007, 6-(1-naphthyl)-N-[(2-oxo-1H-pyridin-3-yl)sulfonyl]-2-[(4S)-2,2,4-trimethylpyrrolidin-1-yl]pyridine-3-carboxamide]
	+++ (“+++” means <3 uM)	Cc1cc(C)c(Oc2nn(C(C)(C)C)cc2C(=O)NS(=O)(=O)c2cccc(N)n2)c(C)c1 [Compound 256, N-[(6-amino-2-pyridyl)sulfonyl]-1-tert-butyl-3-(2,4,6-trimethylphenoxy)pyrazole-4-carboxamide]
	+++ (“+++” means <3 uM)	Cc1cccc(C)c1Cn1nc(-c2cccc(N(C)C)c2)cc1C(=O)NS(=O)(=O)c1ccccc1 [Compound 178, N-(benzenesulfonyl)-5-[3-(dimethylamino)phenyl]-2-[(2,6-dimethylphenyl)methyl]pyrazole-3-carboxamide]
	+++ (“+++” means <3 uM)	COc1cccc(S(=O)(=O)NC(=O)c2ccc(C(C)(C)C)nc2-c2ccc(C)cc2)c1 [Compound 327, 6-tert-butyl-N-(3-methoxyphenyl)sulfonyl-2-(p-tolyl)pyridine-3-carboxamide]
	+++ (“+++” means <3 uM)	Cc1cccc(C)c1Cn1nc(CCC(C)(C)C)cc1C(=O)NS(=O)(=O)c1cccc(N)c1 [Compound 323, N-(3-aminophenyl)sulfonyl-5-(3,3-dimethylbutyl)-2-[(2,6-dimethylphenyl)methyl]pyrazole-3-carboxamide]
	+++ (“+++” means <3 uM)	COc1c(F)cc(Cl)cc1-c1cc(C(=O)NS(=O)(=O)c2ccccc2)n(Cc2c(C)cccc2C)n1 [Compound 379, N-(benzenesulfonyl)-5-(5-chloro-3-fluoro-2-methoxy-phenyl)-2-[(2,6-dimethylphenyl)methyl]pyrazole-3-carboxamide]
	++ (“++” means between 3 uM and 10 uM)	Cc1cccc(-c2nc(C(C)(C)C)ccc2C(=O)NS(=O)(=O)c2cccc(N)c2)c1 [Compound 282, N-(3-aminophenyl)sulfonyl-6-tert-butyl-2-(m-tolyl)pyridine-3-carboxamide]
	+++ (“+++” means <3 uM)	Cc1cc(C)c(Oc2nc(-c3ccc(C(F)(F)F)cc3)ccc2C(=O)NS(=O)(=O)c2cccc(N)n2)c(C)c1 [Compound 548, N-[(6-amino-2-pyridyl)sulfonyl]-6-[4-(trifluoromethyl)phenyl]-2-(2,4,6-trimethylphenoxy)pyridine-3-carboxamide]
	+++ (“+++” means <3 uM)	Cc1cccc(C)c1Cn1nc(-c2ccccc2OC(F)(F)F)cc1C(=O)NS(=O)(=O)c1ccccc1 [Compound 149, N-(benzenesulfonyl)-2-[(2,6-dimethylphenyl)methyl]-5-[2-(trifluoromethoxy)phenyl]pyrazole-3-carboxamide]
	+++ (“+++” means <3 uM)	Cc1cc(C)c(Oc2nc(N3CCCC3)ccc2C(=O)NS(=O)(=O)c2cccc(N)n2)c(C)c1 [Compound 746, N-[(6-amino-2-pyridyl)sulfonyl]-6-pyrrolidin-1-yl-2-(2,4,6-trimethylphenoxy)pyridine-3-carboxamide]
	++ (“++” means between 3 uM and 10 uM)	C[C@@H](c1ccccc1)n1nc(C(C)(C)C)cc1C(=O)NS(=O)(=O)c1cccc(N)c1 [Compound 138, N-(3-aminophenyl)sulfonyl-5-tert-butyl-2-[(1S)-1-phenylethyl]pyrazole-3-carboxamide]
	+++ (“+++” means <3 uM)	Cc1cccc(C)c1Cn1nc(C(C)(C)C)cc1C(=O)NS(=O)(=O)c1ccsc1 [Compound 603, 5-tert-butyl-2-[(2,6-dimethylphenyl)methyl]-N-(3-thienylsulfonyl)pyrazole-3-carboxamide]
